Measurements published in patent US20110189174A1, “COMPOSITIONS AND METHODS FOR TREATING, REDUCING, AMELIORATING, ALLEVIATING, OR INHIBITING PROGRESSION OF, PATHOGENIC OCULAR NEOVASCULARIZATION” (priority 2010, published 2011).

Tests used:
[1] = system: human retinal endothelial cells (HREC); assay: PMA-induced HREC network formation in fibrin gel; format: cell-based; conditions: 10 nM; PMA 25 ng/mL; vs PMA control
Method: Prior to the start of the experiment, HREC from Cell Systems were cultured in flask in CS-C complete medium. The tube formation assay was performed in a 96-well plate pre-coated with fibrin gel. HREC were collected from flasks and re-suspended 1% FBS EBM-2 medium. Cells were pre-incubated with the integrin antagonists, echistatin or vehicle control for 30 min before loading onto the fibrin gel. Images were taken at 9 h.
Thrombin solution and fibrinogen solutions were allowed to thaw at room temperature and 37° C. water bath, respectively. Fibrinogen solution at 30 μL was added into the desired number of wells in a 96-well plate. Plate was gently shaken to ensure uniform coverage of fibrinogen solution in the well. Thrombin at 20 μL was added into each well. The plate was gently shaken immediately to ensure the thrombin was mixed well with fibrinogen. The plate was placed at 37° C. overnight to allow the fibrin gel to polymerize.
HREC were trypsinized at about 80% confluence and counted by standard hemocytometer methods. After deactivating trypsin with 5 mL of 10% FBS EBM-2 medium, the cells were centrifuged (800 rpm, 8 min) and re-suspended at 2×10^5 cells/mL in 1% FBS EBM-2 medium
Cells were pre-incubated with integrin compounds or echistatin at 37° C., 5% CO2, and 95% humidity for 30 minutes before mixing with PMA medium. The final concentrations of all agents are shown in the design table. The 100 μL of the cell mixture was added onto the gel and cells were cultured at 37° C., 5% CO2, and 95% humidity. Images were taken at different time points.
The network formation scoring system (a five point-scale)
Each well in one group was given a score and then averaged. Data were expressed as mean±SEM of network formation scores. Statistical analysis was performed using a one-way ANOVA-Dunnett's test in raw data, and p<0.05 was considered statistically significant. Data analysis was performed using statistical analysis software JMP (SAS Institute, Cary, N.C.).

[2] = Clinical ophthalmic examination in monkeys (vitreal cell scores, anterior chamber inflammation); format: in vivo, cynomolgus monkeys (Macaca fascicularis); conditions: intravitreal days 1 and 15, cells not distinguishable from dispersed drug
Method: Once the phase Ib study was completed, and it was established that the drug suspension in oil would not interfere with either laser administration, evaluation of CNV or cause adverse effects, phase II was initiated. On days 1, and 15 both eyes of monkeys received 50 μL of Lucentis (0.5 mg/eye), vehicle (0 mg/eye), BOL-303050-X (1.5 mg/eye), BOL-303054-X (1.5 mg/eye) or BOL-303055-X (1.5 mg/eye) (Table 2). Intravitreous injection was performed for each by eye aiming towards mid-vitreous body. Dosing in the right eye was alternated for successive doses (as applicable) at approximately the 11 o'clock and 10 o'clock positions. Dosing in the left eye was alternated for successive doses (as applicable) from approximately the 1 o'clock and 2 o'clock positions.
Animals were examined at baseline, on days 1, 3, 7, 15, and 31 of Dosing Phase II and on the day of scheduled sacrifice (day 38). On days of dose administration the ophthalmic examination was done prior to dosing.

[3] = Ocular clinical findings in rats 14 days after intravitreal injection; conditions: Day 14; 200 μg/eye intravitreal
Method: The anterior segment of the eye was examined using a slit-lamp biomicroscopy for excluding any animals with abnormalities that might interfere with the study. Fundus photography and fluorescein angiography (FA) were performed to document the health of the retina and the ocular circulation using a TRC 50EX fundus camera (Topcon). For FA, 10% sodium fluorescein was injected intravenously (50 mg/kg of body weight) through the tail vein or the vein under the incisor before the procedure.
Immediately after placement of laser photocoagulation, the experimental eyes received an intravitreal injection of either a compound or a vehicle as described in Table 5. Following the disinfection of ocular surface with 5% betadine and 0.9% saline solutions, the injections were performed with aid of a surgical microscope using 0.3 mL syringes with a 31-gauge ½-inch long needle (Ultra-Fine II™ Insulin syringe, BD, Franklin Lakes, N.J.).
Two weeks after photocoagulation, all rats were examined under anesthesia and pupil dilation with slit-lamp biomicroscopy, fundus photography and FA as described in the baseline examination.

[4] = system: laser-induced CNV in rats; assay: Laser-induced choroidal neovascularization in rats (CNV area, fluorescein angiography grades); format: in vivo, Brown Norway rats; conditions: day 14, 200 μg/eye (echistatin 5 μg, Avastin 125 μg)
Method: Fifty six male Brown Norway rats, approximately 200-300 grams of body weight and two months of age, were used in this study. This study was performed in two cohorts and only one eye of each rat was used.
The pupils were dilated and then the rats were anesthetized as described in baseline examination. The rats were positioned in front of a slit lamp system (Haag-Streit USA, Mason, Ohio). […] A diode laser (OcuLight TX, IRIDEX, Mountain View, Calif.) was used for photocoagulation (532 nm wavelength, 120 mW power, 50 μm spot size and 0.05 seconds duration). For each right eye, a series of six photocoagulation sites were concentrically placed between the major retinal vessels at equal distance (about two optic discs) around the optic nerve head. […] If a significant retinal or subretinal hemorrhage occurred during the laser photocoagulation, then the left eye was be photocoagulated and used as the experimental eye.
Grade 1 lesions had no hyperfluorescence.
The eyes were collected on day 14 and immediately fixed in 4% paraformaldehyde in PBS (pH 7.4) for one and half hours, and then transferred into cold PBS and kept at 4° C. for further processing.
The incubation was performed in a humidified dark chamber with gentle rotation at 4° C. overnight. On the second day, the retinal pigment epithelium (RPE)-choroidsclera complexes were washed with cold IHC buffer, mounted with ProLong® Gold antifade reagent, covered with circular cover glass, and sealed with clear nail polish. Fluorescent images were collected with a confocal microscope (FluoView FV 1000 confocal microscope, Olympus, Center Valley, Pa.) and a 4×, 0.16 numerical aperture objective lens. […] The laser sites were identified by merging images of the green (phalloidin labeling RPE) and the red (isolectin IB4 labeling CNV) channels. CNV complexes were identified using the red channel (isolectin), and their areas were quantified using the FluoView software (Version 1.7a).
Average FA scores and areas of CNV complexes in each group were presented as mean±SEM, unless otherwise indicated. They were analyzed using a one-way ANOVA followed by a Tukey-Kramer test after Box-Cox transformations. All statistics were performed utilizing the statistical analysis software JMP (SAS Institute, Cary, N.C.). p values ≦0.05 were considered statistically significant.

[5] = one intravitreal injection after laser

## CCc1nc(NC[C@H](NC(=O)OCc2ccccc2)C(=O)O)c(C)c(N2CCC(c3ccc4c(n3)NCCC4)CC2)n1 [BOL-303055-X]
[1]
  Inhibition of PMA-induced HREC network formation in fibrin gel: significantly inhibited
[2]; Day 3
  Vitreal cell score: number of eyes with grade 0: 11
  Vitreal cell score: number of eyes with grade 1: 1
  Vitreal cell score: number of eyes with grade 2: 0
  Vitreal cell score: number of eyes with grade 3: 0
  Vitreal cell score: number of eyes with grade 4: 0
  Vitreal cell score: number of eyes with grade Trace: 6
[2]; Day 7
  Vitreal cell score: number of eyes with grade 0: 0
  Vitreal cell score: number of eyes with grade 1: 3
  Vitreal cell score: number of eyes with grade 2: 6
  Vitreal cell score: number of eyes with grade 3: 3
  Vitreal cell score: number of eyes with grade 4: 1
  Vitreal cell score: number of eyes with grade Trace: 5
[2]; Day 15
  Vitreal cell score: number of eyes with grade 0: 0
  Vitreal cell score: number of eyes with grade 1: 7
  Vitreal cell score: number of eyes with grade 2: 3
  Vitreal cell score: number of eyes with grade 3: 1
  Vitreal cell score: number of eyes with grade 4: 3
  Vitreal cell score: number of eyes with grade Trace: 4
[2]; Day 31
  Vitreal cell score: number of eyes with grade 0: 5
  Vitreal cell score: number of eyes with grade 1: 2
  Vitreal cell score: number of eyes with grade 2: 4
  Vitreal cell score: number of eyes with grade 3: 0
  Vitreal cell score: number of eyes with grade 4: 0
  Vitreal cell score: number of eyes with grade Trace: 7
[2]; Day 38
  Vitreal cell score: number of eyes with grade 0: 6
  Vitreal cell score: number of eyes with grade 1: 5
  Vitreal cell score: number of eyes with grade 2: 0
  Vitreal cell score: number of eyes with grade 3: 0
  Vitreal cell score: number of eyes with grade 4: 0
  Vitreal cell score: number of eyes with grade Trace: 7
[3]
  Eyes with anterior chamber inflammation/Total eyes: 5/6
  Eyes with retinal vascular congestion/vessel-observable eyes: 2/2
  Posterior synechiae of iris: Posterior synechiae of iris occurred in several eyes
[4]; [5]
  CNV area / development of CNV on isolectin IB4-labeled flat mounts compared to vehicle-treated controls: smaller area of CNV
  Mean score of fluorescein leakage (FA score) compared to vehicle-treated controls: smaller means
[4]; unobstructed lesions
  Number of lesions in FA grade 1: 0
  Number of lesions in FA grade 2: 3
  Number of lesions in FA grade 3: 2
  Number of lesions in FA grade 4: 1
